From patent US20090253687A1, “Fused Heterocyclic Compounds and Their Use as Mineralocorticoid Receptor Ligands” (priority 2005, published 2009)

target: T1, Human Mineralocorticoid Receptor (hMR) (Homo sapiens, UniProt P08235); experiment: Inhibition of binding of [3H]-aldosterone to hMR (lysate of FreeStyle 293 cells expressing hMR); conditions: compound at 10^−5 M; 10 nM [3H]-aldosterone; hMR lysate 1.0 mg/ml; 16 hr at 4° C.; read-out: Inhibition rate (at 10^−5 M)
T1 construct: Full-length cDNA was constructed from two fragments of hMR cDNA amplified separately; expressed in transfected cells; host or cells: FreeStyle 293 cells transiently transfected with pMCMVneo-hMR; supernatant of the freeze-thaw lysate after ultracentrifugation
T1 sequence (P08235 1-984): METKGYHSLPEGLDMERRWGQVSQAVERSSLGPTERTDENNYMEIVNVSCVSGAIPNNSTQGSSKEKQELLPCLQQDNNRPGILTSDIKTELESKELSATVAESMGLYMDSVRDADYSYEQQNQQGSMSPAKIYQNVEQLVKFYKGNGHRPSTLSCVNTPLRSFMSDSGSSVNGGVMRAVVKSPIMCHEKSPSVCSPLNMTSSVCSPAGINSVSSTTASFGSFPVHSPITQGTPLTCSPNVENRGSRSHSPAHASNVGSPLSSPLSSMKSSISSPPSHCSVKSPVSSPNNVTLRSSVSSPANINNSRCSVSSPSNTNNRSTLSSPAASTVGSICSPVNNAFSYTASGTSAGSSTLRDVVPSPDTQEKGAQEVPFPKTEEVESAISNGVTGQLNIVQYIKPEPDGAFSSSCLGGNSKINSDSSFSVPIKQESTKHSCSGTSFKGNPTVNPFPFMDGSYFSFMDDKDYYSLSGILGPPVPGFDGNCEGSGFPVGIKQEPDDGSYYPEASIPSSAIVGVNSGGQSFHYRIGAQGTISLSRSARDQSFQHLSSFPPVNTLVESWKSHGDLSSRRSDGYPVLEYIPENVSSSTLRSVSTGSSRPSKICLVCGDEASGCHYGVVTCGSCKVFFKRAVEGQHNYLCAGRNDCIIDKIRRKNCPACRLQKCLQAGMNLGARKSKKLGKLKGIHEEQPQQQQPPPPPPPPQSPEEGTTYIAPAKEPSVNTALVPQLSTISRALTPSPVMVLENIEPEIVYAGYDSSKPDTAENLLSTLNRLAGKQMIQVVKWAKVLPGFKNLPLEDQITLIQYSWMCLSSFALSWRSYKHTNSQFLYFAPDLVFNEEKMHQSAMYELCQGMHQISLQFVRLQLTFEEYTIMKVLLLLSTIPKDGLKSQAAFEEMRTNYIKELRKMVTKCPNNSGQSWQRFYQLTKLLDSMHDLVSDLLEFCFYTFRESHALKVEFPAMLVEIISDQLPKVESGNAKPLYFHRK
Procedure: The following procedures described in this Example were carried out according to the methods described in Molecular Cloning—Cold Spring Harbor Laboratory (1989) or protocols specified by manufacturers. (1) Cloning of Human Mineralocorticoid Receptor (hMR) cDNA hMR cDNA was amplified by polymerase chain reaction (PCR) from human kidney cDNA library. Full-length cDNA was constructed from two fragments of hMR cDNA amplified separately. The primers were designed referring to the nucleotide sequence of hMR cDNA reported by Arriza et. al (Science 1987; 237: 268-275). The PCR reactions were carried out using Pyrobest® DNA polymerase (Takara). The PCR products were electrophoresed in agarose gel, and 1.7 kb (region (i)) and 1.5 kb (region (ii)) DNA fragments were recovered. Each DNA fragment was inserted into pCR®4Blunt-TOPO® vector (Invitrogen). The resulting plasmids thus obtained were designated as pB-hMR (i) and pB-hMR (ii). To obtain the full-length hMR cDNA, pB-hMR (i) was digested with XhoI and PvuI, and pB-hMR (ii) was digested with PvuI and KpnI, respectively, and the two cDNA fragments were ligated into pBlueScript®IISK+ vector (Stratagene). The resulting plasmid thus obtained was designated as pB-hMR. (2) Construction of hMR Expression Plasmid pMCMVneo (described in WO03/099793) was digested with XhoI and KpnI, and 5.6 kb fragment was ligated with 2.9 kb hMR cDNA fragment obtained by digestion of pB-hMR (described in above (1)) with XhoI and KpnI. The plasmid thus obtained was designated as pMCMVneo-hMR. (3) Expression of hMR in FreeStyle 293 Cells and Preparation of Cell Lysate FreeStyle 293 cells were inoculated at 1×10^8 cells in 93 ml FreeStyle™ 293 Expression Medium (Invitrogen) in a 500 ml Erlenmeyer flask and cultured at 37° C. under 8% CO2 for 1 hr. The cells were treated with 6.7 ml of the transfection mixture containing 100 μg of pMCMVneo-hMR obtained in above (2) and 133 μl of FreeStyle™ 293 Transfection Reagent (Invitrogen). The transfected cells were cultivated for 48 hr at 37° C. in 8% CO2 atmosphere. The cultivated cells were centrifuged and washed with TEG buffer (10 mM Tris-HCl (pH 7.2), 50 mM EDTA, 10% glycerol), and resuspended in 10 ml TEGM buffer (10 mM Tris-HCl (pH 7.2), 1 mM EDTA, 10% glycerol, 1 mM β-mercaptoethanol, 10 mM sodium molybdate, 1 mM dithiothreitol, 2 tablets/100 ml of protease inhibitor cocktail tablets (Roche)). The cell suspension was frozen with liquid nitrogen and thawed on ice, and ultra-centrifuged at 225,000×g for 20 min at 4° C. The supernatant fraction including hMR (hMR lysate) was collected and stored at −80° C. (4) Measurement of Inhibition Activity Against Binding of hMR and Aldosterone [^3H]-Aldosterone (Amersham Biosciences) as ligand was added at 10 nM to the reaction mixture including test compound at various concentration and hMR lysate (1.0 mg/ml) obtained in above (3) and mixture was filled up to 50.5 μl with TEGM buffer. The reaction mixture was incubated for 16 hr at 4° C. and 35 μl of dextran/gelatin coated charcoal suspension (5% charcoal, 0.5% dextran T-70 (Amersham Biosciences), 0.1% gelatin (SIGMA), 10 mM Tris HCl (pH 7.2), 1 mM EDTA) was added thereto to separate bound and free radioactive aldosterone. The mixture containing charcoal was incubated for 10 min at 4° C. and centrifuged at 910×g for 10 min at 4° C. Radioactivity in 30 μl of the supernatant was measured by TopCount™ (Packard). For the determination of nonspecific binding, cold Aldosterone instead of drug was added to reaction mixture at 100 μM. Specific binding was determined by subtracting nonspecific binding from total binding.

Inhibition at 10 µM, ≥ 70%:
O=C1COc2ccc(C3=Nn4cnnc4SC3c3ccccc3)cc2N1 (stereo not shown) [Example 3, 6-(7-phenyl-7H-[1,2,4]triazolo[3,4-b][1,3,4]thiadiazin-6-yl)-2H-1,4-benzoxazin-3(4H)-one]
O=C1COc2ccc(C3=Nn4ccnc4SC3c3ccccc3)cc2N1 (stereo not shown) [Example 5, 6-(2-Phenyl-2H-imidazo[2,1-b][1,3,4]thiadiazin-3-yl)-2H-1,4-benzoxazin-3(4H)-one]
O=C1COc2ccc(C3=Nn4cc(C(F)(F)F)nc4SC3c3ccccc3)cc2N1 (stereo not shown) [Example 7, 6-[2-Phenyl-7-(trifluoromethyl)-2H-imidazo[2,1-b][1,3,4]thiadiazin-3-yl]-2H-1,4-benzoxazin-3(4H)-one]
O=C1COc2ccc(C3=Nc4ccccc4SC3c3ccccc3)cc2N1 (stereo not shown) [Example 14, 6-(2-Phenyl-2H-1,4-benzothiazin-3-yl)-2H-1,4-benzoxazin-3(4H)-one]
O=C1COc2ccc(C3=Nc4ccccc4OC3c3ccccc3)cc2N1 (stereo not shown) [Example 18, 2-Phenyl-2H,2′H-3,6′-bi-1,4-benzoxazin-3′(4′H)-one]
O=C1COc2ccc(C3=Cc4ccccc4OC3c3ccccc3)cc2N1 (stereo not shown) [Example 19, 6-(2-Phenyl-2H-chromen-3-yl)-2H-1,4-benzoxazin-3(4H)-one]
O=C1COc2ccc(C3=Cc4ccccc4SC3c3ccccc3)cc2N1 (stereo not shown) [Example 20, 6-(2-Phenyl-2H-thiochromen-3-yl)-2H-1,4-benzoxazin-3(4H)-one]
NC1=NC=C(c2ccc3c(c2)NC(=O)CO3)C(c2ccccc2)S1 (stereo not shown) [Example 24, 6-(2-amino-6-phenyl-6H-1,3-thiazin-5-yl)-2H-1,4-benzoxazin-3(4H)-one]
O=C1COc2ccc(C3=Cn4ccnc4SC3c3ccccc3)cc2N1 (stereo not shown) [Example 26, 6-(7-Phenyl-7H-imidazo[2,1-b][1,3]thiazin-6-yl)-2H-1,4-benzoxazin-3(4H)-one]
CCCC1Sc2nncn2N=C1c1ccc2c(c1)NC(=O)CO2 (stereo not shown) [Example 31, 6-(7-Propyl-7H-[1,2,4]triazolo[3,4-b][1,3,4]thiadiazin-6-yl)-2H-1,4-benzoxazin-3(4H)-one]
O=C1COc2ccc(C3=Nn4cnnc4SC3c3ccccc3Cl)cc2N1 (stereo not shown) [Example 34, 6-[7-(2-chlorophenyl)-7H-[1,2,4]triazolo[3,4-b][1,3,4]thiadiazin-6-yl]-2H-1,4-benzoxazin-3(4H)-one]
O=C1COc2ccc(C3=Nn4cnnc4SC3c3ccc(F)cc3)cc2N1 (stereo not shown) [Example 35, 6-[7-(4-Fluorophenyl)-7H-[1,2,4]triazolo[3,4-b][1,3,4]thiadiazin-6-yl]-2H-1,4-benzoxazin-3(4H)-one]
O=C1COc2ccc(C3=Nc4ccccc4SC3c3ccccn3)cc2N1 (stereo not shown) [Example 43, 6-(2-Pyridin-2-yl-2H-1,4-benzothiazin-3-yl)-2H-1,4-benzoxazin-3(4H)-one]
O=C1COc2ccc(C3=Cc4ccccc4SC3c3ccccn3)cc2N1 (stereo not shown) [Example 44, 6-(2-Pyridin-2-yl-2H-thiochromen-3-yl)-2H-1,4-benzoxazin-3(4H)-one]
O=C1COc2ccc(C3=NN(c4ccc(F)cc4)CC3c3ccccc3)cc2N1 (stereo not shown) [Example 49, 6-(1-(4-Fluorophenyl)-4-phenyl-4,5-dihydro-1H-pyrazol-3-yl)-2H-benzo[b][1,4]oxazin-3(4H)-one]
O=C1COc2ccc(C3=NN(CC(F)(F)F)CC3c3ccccc3)cc2N1 (stereo not shown) [Example 53, 6-(4-Phenyl-1-(2,2,2-trifluoroethyl)-4,5-dihydro-1H-pyrazol-3-yl)-2H-benzo[b][1,4]oxazin-3(4H)-one]
O=C1COc2ccc(C3=NN(C(=O)C(F)(F)F)CC3c3ccccc3)cc2N1 (stereo not shown) [Example 57, 6-(4-Phenyl-1-(2,2,2-trifluoroacetyl)-4,5-dihydro-1H-pyrazol-3-yl)-2H-benzo[b][1,4]oxazin-3(4H)-one]
CS(=O)(=O)N1CC(c2ccccc2)C(c2ccc3c(c2)NC(=O)CO3)=N1 (stereo not shown) [Example 59, 6-(1-(Methylsulfonyl)-4-phenyl-4,5-dihydro-1H-pyrazol-3-yl)-2H-benzo[b][1,4]oxazin-3(4H)-one]
O=C1COc2ccc(C3=C(c4ccc(F)cc4)C(=O)N(c4ccccc4)C3=O)cc2N1 [Example 65, 3-(4-fluorophenyl)-4-(3-oxo-3,4-dihydro-2H-benzo[b][1,4]oxazin-6-yl)-1-phenyl-1H-pyrrole-2,5-dione]
O=C1COc2ccc(C3=C(c4ccc(F)cc4)C(=O)N(c4ccc(F)cc4)C3)cc2N1 [Example 70, 6-(1,4-Bis(4-fluorophenyl)-5-oxo-2,5-dihydro-1H-pyrrol-3-yl)-2H-benzo[b][1,4]oxazin-3(4H)-one]
O=C1COc2ccc(-c3cc(C(F)(F)F)nn3-c3ccc(F)cc3)cc2N1 [Example 71, 6-(1-(4-Fluorophenyl)-3-(trifluoromethyl)-1H-pyrazol-5-yl)-2H-benzo[b][1,4]oxazin-3(4H)-one]
O=C1COc2ccc(-c3cc(C(F)(F)F)nn3-c3ccc(Cl)cc3)cc2N1 [Example 74, 6-(1-(4-Chlorophenyl)-3-(trifluoromethyl)-1H-pyrazol-5-yl)-2H-benzo[b][1,4]oxazin-3(4H)-one]
